Each structure is given as a SMILES string.

The first data set is described as follows: method code SF, from DOI: 10.1016/j.ejps.2004.08.007, PMID: 15567286.
Conditions: not given
Turning to `O=Cc1ccc(C(=O)O)cc1`, the logP (as a rule, the decadic logarithm of the partition coefficient of the neutral form, usually between octanol and water) was 1.52.

A short description of the next data set: method code SF-HPLC, from DOI: 10.1016/j.ejps.2004.08.007, PMID: 15567286. Particulars: pH 7.4.
Take `CCCCOC(=O)Nc1cc[nH]c(=O)n1`: the logD (as a rule, lipophilicity at a set pH, counting ionised and neutral species) was determined as 1.1.

As for `O=C(Nc1cc[nH]c(=O)n1)OCc1ccccc1`, the logD was found to be 1.3.

With `COC(=O)Nc1cc[nH]c(=O)n1`, the logD is -0.55.

`CC(C)COC(=O)Nc1cc[nH]c(=O)n1` displayed a logD of 1.1.

Regarding `CCCCCCOC(=O)Nc1cc[nH]c(=O)n1`, the pH-dependent lipophilicity (logD) came to 2.3.

As to `CC(C)(C)COC(=O)Nc1cc[nH]c(=O)n1`, the logD was 1.5.

Regarding `CCCCCCCCOC(=O)Nc1cc[nH]c(=O)n1`, the logD is 3.3.

In turn, `CCOC(=O)Nc1cc[nH]c(=O)n1` yielded a logD of -0.09.

`O=C(Nc1cc[nH]c(=O)n1)OC12CC3CC(CC(C3)C1)C2` showed a logD of 2.9.

(Values after the SangsterLogP compilation.)
